Columns and labels:
[1] = target: T1, Receptor-type tyrosine-protein kinase FLT3 (Homo sapiens, UniProt P36888)
T1 sequence (P36888 whole entry): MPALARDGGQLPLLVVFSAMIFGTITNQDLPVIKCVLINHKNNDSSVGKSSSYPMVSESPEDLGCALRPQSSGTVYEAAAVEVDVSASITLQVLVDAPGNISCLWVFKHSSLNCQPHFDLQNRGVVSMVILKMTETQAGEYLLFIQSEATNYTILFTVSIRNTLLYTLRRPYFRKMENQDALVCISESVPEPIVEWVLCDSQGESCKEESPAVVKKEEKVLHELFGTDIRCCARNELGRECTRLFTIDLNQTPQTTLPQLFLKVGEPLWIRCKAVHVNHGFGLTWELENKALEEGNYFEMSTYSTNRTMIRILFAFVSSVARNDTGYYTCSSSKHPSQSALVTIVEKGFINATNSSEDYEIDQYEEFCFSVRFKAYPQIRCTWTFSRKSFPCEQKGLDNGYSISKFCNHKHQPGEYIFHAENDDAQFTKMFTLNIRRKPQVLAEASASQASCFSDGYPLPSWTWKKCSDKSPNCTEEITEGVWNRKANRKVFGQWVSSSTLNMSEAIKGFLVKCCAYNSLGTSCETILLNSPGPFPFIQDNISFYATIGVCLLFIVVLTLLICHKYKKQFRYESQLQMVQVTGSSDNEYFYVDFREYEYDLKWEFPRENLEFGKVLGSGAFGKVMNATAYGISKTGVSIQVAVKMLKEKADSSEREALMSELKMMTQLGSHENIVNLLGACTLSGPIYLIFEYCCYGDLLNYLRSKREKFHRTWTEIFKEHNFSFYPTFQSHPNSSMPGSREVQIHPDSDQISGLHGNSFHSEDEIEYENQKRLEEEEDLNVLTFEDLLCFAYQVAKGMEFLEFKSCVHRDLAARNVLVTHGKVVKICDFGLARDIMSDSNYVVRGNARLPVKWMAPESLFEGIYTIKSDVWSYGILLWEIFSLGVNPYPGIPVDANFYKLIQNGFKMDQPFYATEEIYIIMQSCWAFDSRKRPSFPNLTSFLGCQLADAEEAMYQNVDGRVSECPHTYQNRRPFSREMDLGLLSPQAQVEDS

[2] = target: T2, Discoidin domain-containing receptor 2 (Homo sapiens, UniProt Q16832)
T2 sequence (Q16832 whole entry): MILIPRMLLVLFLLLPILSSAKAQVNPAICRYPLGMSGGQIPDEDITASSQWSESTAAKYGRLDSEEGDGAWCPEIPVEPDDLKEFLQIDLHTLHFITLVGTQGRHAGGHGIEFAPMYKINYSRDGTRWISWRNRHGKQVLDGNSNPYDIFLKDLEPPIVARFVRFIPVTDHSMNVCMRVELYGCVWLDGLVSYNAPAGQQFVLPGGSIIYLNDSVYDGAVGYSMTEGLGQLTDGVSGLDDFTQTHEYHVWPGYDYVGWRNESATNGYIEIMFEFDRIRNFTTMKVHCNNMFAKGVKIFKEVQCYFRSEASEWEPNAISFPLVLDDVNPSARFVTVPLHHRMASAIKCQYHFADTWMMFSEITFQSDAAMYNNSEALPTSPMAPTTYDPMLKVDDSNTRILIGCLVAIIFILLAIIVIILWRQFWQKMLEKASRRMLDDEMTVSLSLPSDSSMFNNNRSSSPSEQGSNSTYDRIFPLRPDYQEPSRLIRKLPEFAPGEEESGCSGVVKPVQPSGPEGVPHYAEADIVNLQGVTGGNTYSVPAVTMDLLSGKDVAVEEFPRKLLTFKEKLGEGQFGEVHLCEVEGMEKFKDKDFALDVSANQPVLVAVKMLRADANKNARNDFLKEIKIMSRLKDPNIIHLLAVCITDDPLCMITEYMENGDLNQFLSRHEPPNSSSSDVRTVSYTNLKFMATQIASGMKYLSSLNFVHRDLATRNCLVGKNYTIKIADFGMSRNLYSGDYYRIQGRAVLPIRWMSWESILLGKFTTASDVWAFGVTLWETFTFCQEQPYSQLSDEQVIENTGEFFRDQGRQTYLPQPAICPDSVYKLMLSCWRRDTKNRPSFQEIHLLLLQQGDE

[3] = target: Dual specificity protein kinase CLK1 (Homo sapiens, UniProt P49759)
Dual specificity protein kinase CLK1, sequence (P49759 whole entry): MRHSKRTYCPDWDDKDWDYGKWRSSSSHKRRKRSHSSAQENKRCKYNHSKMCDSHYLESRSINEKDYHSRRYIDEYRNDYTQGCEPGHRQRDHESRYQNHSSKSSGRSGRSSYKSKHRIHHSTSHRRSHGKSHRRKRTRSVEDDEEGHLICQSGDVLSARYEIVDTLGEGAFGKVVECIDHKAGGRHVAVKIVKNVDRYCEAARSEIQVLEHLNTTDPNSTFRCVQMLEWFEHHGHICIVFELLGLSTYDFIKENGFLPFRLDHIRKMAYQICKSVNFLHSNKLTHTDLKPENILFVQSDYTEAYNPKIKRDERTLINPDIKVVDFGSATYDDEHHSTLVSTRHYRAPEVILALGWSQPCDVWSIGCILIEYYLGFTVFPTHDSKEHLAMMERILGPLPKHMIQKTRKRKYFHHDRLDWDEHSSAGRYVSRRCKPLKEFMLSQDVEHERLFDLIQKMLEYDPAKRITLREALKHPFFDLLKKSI

Ephrin type-A receptor 8 = target: T3, Ephrin type-A receptor 8 (Homo sapiens, UniProt P29322)
T3 sequence (P29322 whole entry): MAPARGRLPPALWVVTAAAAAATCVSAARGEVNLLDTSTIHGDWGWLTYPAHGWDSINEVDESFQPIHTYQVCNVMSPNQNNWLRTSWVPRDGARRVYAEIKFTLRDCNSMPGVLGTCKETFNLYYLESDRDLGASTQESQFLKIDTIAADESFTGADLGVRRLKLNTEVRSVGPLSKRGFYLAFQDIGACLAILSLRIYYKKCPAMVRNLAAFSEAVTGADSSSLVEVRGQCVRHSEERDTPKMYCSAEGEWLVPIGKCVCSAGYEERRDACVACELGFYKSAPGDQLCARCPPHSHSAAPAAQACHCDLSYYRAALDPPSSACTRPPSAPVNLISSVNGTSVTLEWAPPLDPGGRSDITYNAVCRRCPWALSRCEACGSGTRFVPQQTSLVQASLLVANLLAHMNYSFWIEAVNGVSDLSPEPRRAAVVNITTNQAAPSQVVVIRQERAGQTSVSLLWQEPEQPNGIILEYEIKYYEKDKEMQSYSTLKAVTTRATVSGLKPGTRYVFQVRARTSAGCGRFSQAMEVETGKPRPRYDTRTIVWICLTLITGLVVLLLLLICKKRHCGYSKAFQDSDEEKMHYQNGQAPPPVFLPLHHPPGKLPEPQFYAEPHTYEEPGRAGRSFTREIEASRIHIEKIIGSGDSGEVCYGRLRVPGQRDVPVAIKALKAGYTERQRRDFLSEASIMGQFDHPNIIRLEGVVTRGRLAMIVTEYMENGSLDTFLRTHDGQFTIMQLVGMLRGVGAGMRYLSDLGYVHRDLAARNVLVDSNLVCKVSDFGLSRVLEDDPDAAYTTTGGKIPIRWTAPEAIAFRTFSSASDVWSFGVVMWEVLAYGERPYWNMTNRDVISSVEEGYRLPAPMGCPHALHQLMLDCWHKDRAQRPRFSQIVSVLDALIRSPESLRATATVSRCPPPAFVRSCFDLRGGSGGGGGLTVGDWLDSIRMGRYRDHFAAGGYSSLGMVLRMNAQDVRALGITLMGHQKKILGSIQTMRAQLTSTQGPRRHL

[4] = target: Protein kinase C eta type (Homo sapiens, UniProt P24723)
Protein kinase C eta type, sequence (P24723 whole entry, canonical isoform): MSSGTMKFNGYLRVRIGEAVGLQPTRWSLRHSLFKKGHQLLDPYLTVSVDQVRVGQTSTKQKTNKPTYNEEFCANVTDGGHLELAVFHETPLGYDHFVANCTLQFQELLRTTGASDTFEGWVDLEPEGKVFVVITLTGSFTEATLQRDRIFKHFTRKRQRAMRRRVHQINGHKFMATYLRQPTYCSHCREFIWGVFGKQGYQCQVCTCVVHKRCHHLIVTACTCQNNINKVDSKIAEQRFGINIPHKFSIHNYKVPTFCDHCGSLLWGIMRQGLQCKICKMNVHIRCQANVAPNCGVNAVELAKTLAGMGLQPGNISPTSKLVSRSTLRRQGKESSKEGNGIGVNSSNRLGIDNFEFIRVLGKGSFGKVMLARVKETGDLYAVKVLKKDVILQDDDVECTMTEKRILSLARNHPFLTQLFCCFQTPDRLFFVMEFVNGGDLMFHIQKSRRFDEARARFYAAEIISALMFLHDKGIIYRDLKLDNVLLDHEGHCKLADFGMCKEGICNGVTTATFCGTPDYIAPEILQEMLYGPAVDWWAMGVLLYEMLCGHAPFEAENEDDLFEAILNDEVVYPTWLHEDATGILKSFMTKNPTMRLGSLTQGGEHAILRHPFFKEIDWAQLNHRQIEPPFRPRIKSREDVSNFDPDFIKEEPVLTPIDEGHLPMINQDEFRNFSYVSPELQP

[5] = target: Casein kinase I isoform gamma-1 (Homo sapiens, UniProt Q9HCP0)
Casein kinase I isoform gamma-1, sequence (Q9HCP0 whole entry, canonical isoform): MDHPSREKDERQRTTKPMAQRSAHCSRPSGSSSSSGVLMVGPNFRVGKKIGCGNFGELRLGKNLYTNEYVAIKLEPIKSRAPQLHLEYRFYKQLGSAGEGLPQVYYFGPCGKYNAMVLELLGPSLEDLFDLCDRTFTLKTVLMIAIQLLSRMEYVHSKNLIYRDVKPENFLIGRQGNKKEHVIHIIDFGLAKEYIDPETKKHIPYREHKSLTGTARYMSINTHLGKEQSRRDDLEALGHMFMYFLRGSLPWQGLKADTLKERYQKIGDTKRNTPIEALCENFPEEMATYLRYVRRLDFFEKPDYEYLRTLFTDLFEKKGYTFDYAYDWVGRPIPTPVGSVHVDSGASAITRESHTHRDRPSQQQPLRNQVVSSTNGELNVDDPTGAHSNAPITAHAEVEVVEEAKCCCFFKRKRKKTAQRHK

[6] = target: Cyclin-dependent kinase 19 (Homo sapiens, UniProt Q9BWU1)
Cyclin-dependent kinase 19, sequence (Q9BWU1 whole entry): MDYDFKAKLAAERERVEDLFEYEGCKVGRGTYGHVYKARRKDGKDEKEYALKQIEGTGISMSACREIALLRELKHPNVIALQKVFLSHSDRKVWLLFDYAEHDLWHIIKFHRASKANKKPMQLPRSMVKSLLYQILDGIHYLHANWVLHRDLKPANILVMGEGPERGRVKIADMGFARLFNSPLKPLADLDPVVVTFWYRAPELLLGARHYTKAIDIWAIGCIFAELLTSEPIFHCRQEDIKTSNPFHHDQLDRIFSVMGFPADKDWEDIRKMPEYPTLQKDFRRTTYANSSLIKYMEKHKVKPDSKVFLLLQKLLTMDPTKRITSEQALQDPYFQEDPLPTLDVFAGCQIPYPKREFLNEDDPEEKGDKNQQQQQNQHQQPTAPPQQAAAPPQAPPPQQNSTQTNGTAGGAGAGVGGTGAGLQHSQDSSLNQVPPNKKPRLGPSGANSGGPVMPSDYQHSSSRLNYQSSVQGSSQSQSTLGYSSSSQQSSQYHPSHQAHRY

Structure (SMILES)	Kd [1]	Kd [2]	Kd [3]	Kd (Ephrin type-A receptor 8)	Kd [4]	Kd [5]	Kd [6]
COCC(=O)NC/C=C/c1ccc2ncnc(Nc3ccc(Oc4ccc(C)nc4)c(C)c3)c2c1 [CP-724714]	> 10 µM	> 10 µM	> 10 µM	> 10 µM	> 10 µM	> 10 µM	–
NC(=O)c1ccc(-c2nc(-c3ccc4c(c3)OCO4)c(-c3ccccn3)[nH]2)cc1 [SB-431542]	–	> 10 µM	> 10 µM	> 10 µM	> 10 µM	–	> 10 µM
Nc1nc(Nc2ccc(S(N)(=O)=O)cc2)nn1C(=O)c1c(F)cccc1F [JNJ-7706621]	–	> 10 µM	–	> 10 µM	> 10 µM	–	> 10 µM
CCOc1cc2ncc(C#N)c(Nc3ccc(F)c(Cl)c3)c2cc1NC(=O)/C=C/CN(C)C [PELITINIB]	> 10 µM	> 10 µM	–	–	> 10 µM	> 10 µM	> 10 µM
Oc1ccc(-c2nc(-c3ccncc3)c(-c3ccc(F)cc3)[nH]2)cc1 [SB-202190]	> 10 µM	1.6 µM	> 10 µM	> 10 µM	> 10 µM	> 10 µM	> 10 µM
